Results: patent publication US11969428B2, “Methods and pharmaceutical compositions for treating lymphoid malignancy” (priority 2011, dated 2024)

What was measured:
Assay in all cases: Ambit KinomeScan screening
Assay type in all cases: binding
Conditions in all cases: CAL-130 10 μM
[1] = molecular target: T1, PAK3 (Homo sapiens, UniProt O75914)
T1 construct: purchased Ambit (KinomeScan screening service)
Method: (§1) CAL-130 (10 μM) was evaluated for its ability to prevent tagged kinases from interacting with immobilized “bait” ligand (Karaman et al., 2008). Results are reported as “% of control binding”, where lower numbers indicate stronger interactions with the tagged kinase. Values of >35% are considered “no hits”. PI3Kδ had the lowest percentage of control binding at 0.2% followed by PI3Kγ at 3.2% (See Table 1 below). These values indicate a high probability of a potent interaction. 353 kinases were assessed in the screen (Table 2).

[2] = molecular target: T2, PHKG1 (Homo sapiens, UniProt Q16816)
T2 construct: unspecified tag ('tagged kinases'); purchased Ambit (KinomeScan screening)
Method: as §1

[3] = molecular target: T3, TYRO3 (Homo sapiens, UniProt Q06418)
T3 construct: tag, kind not specified; purchased Ambit (KinomeScan screening service)
Method: as §1

[4] = molecular target: T4, BLK (Homo sapiens, UniProt P51451)
T4 construct: purchased Ambit (KinomeScan screening service)
Method: as §1

[5] = molecular target: T5, KIT(V559D) (Homo sapiens, UniProt P10721, V559D)
T5 construct: purchased Ambit (KinomeScan screening)
Method: as §1

[6] = molecular target: T6, PCTK2 (Homo sapiens, UniProt Q00537)
T6 construct: unspecified tag ('tagged kinases'); purchased Ambit (KinomeScan screening)
Method: as §1

[7] = molecular target: T7, NDR1 (Homo sapiens, UniProt Q15208)
T7 construct: unspecified tag; purchased Ambit (KinomeScan screening panel)
Method: as §1

[8] = molecular target: T8, ACVRL1 (Homo sapiens, UniProt P37023)
T8 construct: purchased Ambit (KinomeScan screening)
Method: as §1

[9] = molecular target: T9, NEK1 (Homo sapiens, UniProt Q96PY6)
T9 construct: unspecified tag; purchased Ambit (KinomeScan screening panel)
Method: as §1

[10] = molecular target: T10, PKN1 (Homo sapiens, UniProt Q16512)
T10 construct: purchased Ambit (KinomeScan screening service)
Method: as §1

[11] = molecular target: T11, GRK7 (Homo sapiens, UniProt Q8WTQ7)
T11 construct: unspecified tag ('tagged kinases'); purchased Ambit (KinomeScan screening service)
Method: as §1

[12] = molecular target: T12, CSF1R (Homo sapiens, UniProt P07333)
T12 construct: purchased Ambit (KinomeScan screening service)
Method: as §1

[13] = molecular target: T13, SRC (Homo sapiens, UniProt P12931)
T13 construct: tag, kind not specified; purchased Ambit (KinomeScan screening service)
Method: as §1

[14] = molecular target: T14, DDR1 (Homo sapiens, UniProt Q08345)
T14 construct: unspecified tag ("tagged kinases"); purchased Ambit (KinomeScan screening service)
Method: as §1

[15] = molecular target: T15, CAMK4 (Homo sapiens, UniProt Q16566)
T15 construct: purchased Ambit (KinomeScan screening)
Method: as §1

[16] = molecular target: T16, DMPK2 (Homo sapiens, UniProt Q6DT37)
T16 construct: unspecified tag ("tagged kinases"); purchased Ambit (KinomeScan screening service)
Method: as §1

[17] = molecular target: T17, INSR (Homo sapiens, UniProt P06213)
T17 construct: Ambit (KinomeScan screening)
Method: as §1

[18] = molecular target: T18, LOK (Homo sapiens, UniProt O94804)
T18 construct: unspecified tag ('tagged kinases'); purchased Ambit (KinomeScan screening service)
Method: as §1

[19] = molecular target: T19, FLT1 (Homo sapiens, UniProt P17948)
T19 construct: unspecified tag; purchased Ambit (KinomeScan screening service)
Method: as §1

[20] = molecular target: T20, EGFR(L747-S752DEL, P753S) (Homo sapiens, UniProt P00533, DEL747-752/P753S)
T20 construct: unspecified tag; purchased Ambit (KinomeScan screening service)
Method: as §1

[21] = molecular target: T21, MYLK (Homo sapiens, UniProt Q15746)
T21 construct: unspecified tag; purchased Ambit (KinomeScan screening panel)
Method: as §1

[22] = molecular target: T22, PRKCH (Homo sapiens, UniProt P24723)
T22 construct: purchased Ambit (KinomeScan screening service)
Method: as §1

[23] = molecular target: T23, ERBB2 (Homo sapiens, UniProt P04626)
T23 construct: purchased Ambit (KinomeScan screening service)
Method: as §1

[24] = molecular target: T24, TAOK1 (Homo sapiens, UniProt Q7L7X3)
T24 construct: tag (kind not specified); purchased Ambit (KinomeScan screening service)
Method: as §1

[25] = molecular target: T25, MAP3K15 (Homo sapiens, UniProt Q6ZN16)
T25 construct: Ambit (KinomeScan screening)
Method: as §1

[26] = molecular target: T26, KIT(V559D, V654A) (Homo sapiens, UniProt P10721, V559D/V654A)
T26 construct: unspecified tag ('tagged kinases'); purchased Ambit (KinomeScan screening service)
Method: as §1

[27] = molecular target: T27, LZK (Homo sapiens, UniProt O43283)
T27 construct: unspecified tag ('tagged kinases'); purchased Ambit (KinomeScan screening service)
Method: as §1

[28] = molecular target: T28, JAK1(JH1domain) (Homo sapiens, UniProt P23458)
T28 construct: JAK1(JH1domain); purchased Ambit (KinomeScan screening)
Method: as §1

[29] = molecular target: T29, KIT(V559D, T670I) (Homo sapiens, UniProt P10721, T670I/V559D)
T29 construct: unspecified tag ('tagged kinases'); purchased Ambit (KinomeScan screening)
Method: as §1

[30] = molecular target: T30, RET(V804M) (Homo sapiens, UniProt P07949, V804M)
T30 construct: tag (kind not specified); purchased Ambit (KinomeScan screening service)
Method: as §1

[31] = molecular target: T31, YANK2 (Homo sapiens, UniProt Q9NY57)
T31 construct: purchased Ambit (KinomeScan screening service)
Method: as §1

[32] = molecular target: T32, LKB1 (Homo sapiens, UniProt Q15831)
T32 construct: unspecified tag ('tagged kinases'); purchased Ambit (KinomeScan screening service)
Method: as §1

[33] = molecular target: T33, PRP4 (Homo sapiens, UniProt Q13523)
T33 construct: tag (kind not specified); purchased Ambit (KinomeScan screening service)
Method: as §1

[34] = molecular target: T34, CDKL3 (Homo sapiens, UniProt Q8IVW4)
T34 construct: purchased Ambit (KinomeScan screening service)
Method: as §1

[35] = molecular target: T35, CSNK1G2 (Homo sapiens, UniProt P78368)
T35 construct: purchased Ambit (KinomeScan screening service)
Method: as §1

[36] = molecular target: T36, CDK9 (Homo sapiens, UniProt P50750)
T36 construct: purchased Ambit (KinomeScan screening service)
Method: as §1

Measured: Percent of Control Binding

T31 sequence (Q9NY57 whole entry): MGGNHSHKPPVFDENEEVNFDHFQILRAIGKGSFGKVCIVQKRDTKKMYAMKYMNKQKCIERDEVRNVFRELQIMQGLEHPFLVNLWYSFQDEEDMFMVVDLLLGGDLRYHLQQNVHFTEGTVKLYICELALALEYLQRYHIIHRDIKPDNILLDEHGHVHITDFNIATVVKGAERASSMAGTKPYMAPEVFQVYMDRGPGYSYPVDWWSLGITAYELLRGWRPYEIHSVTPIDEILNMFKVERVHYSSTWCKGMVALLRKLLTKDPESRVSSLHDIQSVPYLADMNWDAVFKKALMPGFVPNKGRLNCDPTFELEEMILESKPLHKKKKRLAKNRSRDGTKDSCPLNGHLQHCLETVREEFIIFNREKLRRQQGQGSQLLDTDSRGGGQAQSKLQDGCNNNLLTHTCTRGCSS
T16 sequence (Q6DT37 whole entry): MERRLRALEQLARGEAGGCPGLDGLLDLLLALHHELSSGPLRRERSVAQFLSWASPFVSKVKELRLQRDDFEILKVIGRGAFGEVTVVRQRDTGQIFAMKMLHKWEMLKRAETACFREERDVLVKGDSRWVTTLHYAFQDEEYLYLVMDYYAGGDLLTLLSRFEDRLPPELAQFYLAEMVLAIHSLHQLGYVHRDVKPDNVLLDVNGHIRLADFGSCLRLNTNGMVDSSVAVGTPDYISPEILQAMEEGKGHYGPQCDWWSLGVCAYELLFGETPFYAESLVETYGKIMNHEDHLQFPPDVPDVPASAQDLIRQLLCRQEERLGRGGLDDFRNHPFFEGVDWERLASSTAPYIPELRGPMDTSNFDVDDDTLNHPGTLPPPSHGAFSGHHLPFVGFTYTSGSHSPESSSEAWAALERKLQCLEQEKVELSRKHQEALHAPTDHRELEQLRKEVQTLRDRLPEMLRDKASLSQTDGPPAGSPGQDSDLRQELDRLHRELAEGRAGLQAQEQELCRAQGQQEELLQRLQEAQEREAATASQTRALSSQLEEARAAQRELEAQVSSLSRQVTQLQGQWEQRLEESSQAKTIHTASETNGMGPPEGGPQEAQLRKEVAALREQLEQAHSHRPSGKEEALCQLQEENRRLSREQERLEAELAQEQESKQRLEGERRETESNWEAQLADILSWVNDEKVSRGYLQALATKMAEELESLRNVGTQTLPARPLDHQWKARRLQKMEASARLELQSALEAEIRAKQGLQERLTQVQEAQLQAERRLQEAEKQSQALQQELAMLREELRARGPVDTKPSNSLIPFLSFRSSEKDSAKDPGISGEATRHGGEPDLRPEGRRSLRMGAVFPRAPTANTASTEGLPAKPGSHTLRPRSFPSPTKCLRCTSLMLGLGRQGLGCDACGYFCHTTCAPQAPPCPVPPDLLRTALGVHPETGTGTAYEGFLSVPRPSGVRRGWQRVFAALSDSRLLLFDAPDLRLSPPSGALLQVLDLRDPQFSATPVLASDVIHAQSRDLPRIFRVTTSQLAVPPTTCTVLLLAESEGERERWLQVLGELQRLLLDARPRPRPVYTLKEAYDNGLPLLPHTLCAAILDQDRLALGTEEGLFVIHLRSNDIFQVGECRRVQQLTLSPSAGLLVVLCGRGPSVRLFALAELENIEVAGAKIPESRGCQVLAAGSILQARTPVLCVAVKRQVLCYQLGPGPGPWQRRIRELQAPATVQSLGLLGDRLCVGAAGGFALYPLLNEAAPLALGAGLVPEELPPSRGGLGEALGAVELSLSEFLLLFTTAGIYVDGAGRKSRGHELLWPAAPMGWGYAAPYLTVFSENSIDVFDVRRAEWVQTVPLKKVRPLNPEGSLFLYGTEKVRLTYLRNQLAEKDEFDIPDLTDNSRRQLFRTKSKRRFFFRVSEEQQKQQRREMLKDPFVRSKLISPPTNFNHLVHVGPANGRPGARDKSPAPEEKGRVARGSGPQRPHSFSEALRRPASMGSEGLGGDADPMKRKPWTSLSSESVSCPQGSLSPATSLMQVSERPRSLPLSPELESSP
T36 sequence (P50750 whole entry): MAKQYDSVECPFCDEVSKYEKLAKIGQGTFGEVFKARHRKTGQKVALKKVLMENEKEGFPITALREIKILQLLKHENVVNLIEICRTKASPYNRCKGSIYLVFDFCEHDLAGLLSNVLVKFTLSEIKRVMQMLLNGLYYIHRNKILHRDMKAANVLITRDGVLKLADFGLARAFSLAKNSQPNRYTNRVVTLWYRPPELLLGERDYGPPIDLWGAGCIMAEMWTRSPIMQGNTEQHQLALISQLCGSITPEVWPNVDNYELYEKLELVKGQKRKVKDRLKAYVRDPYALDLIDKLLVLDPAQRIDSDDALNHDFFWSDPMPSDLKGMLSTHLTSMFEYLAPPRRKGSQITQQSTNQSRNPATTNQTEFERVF
T4 sequence (P51451 whole entry): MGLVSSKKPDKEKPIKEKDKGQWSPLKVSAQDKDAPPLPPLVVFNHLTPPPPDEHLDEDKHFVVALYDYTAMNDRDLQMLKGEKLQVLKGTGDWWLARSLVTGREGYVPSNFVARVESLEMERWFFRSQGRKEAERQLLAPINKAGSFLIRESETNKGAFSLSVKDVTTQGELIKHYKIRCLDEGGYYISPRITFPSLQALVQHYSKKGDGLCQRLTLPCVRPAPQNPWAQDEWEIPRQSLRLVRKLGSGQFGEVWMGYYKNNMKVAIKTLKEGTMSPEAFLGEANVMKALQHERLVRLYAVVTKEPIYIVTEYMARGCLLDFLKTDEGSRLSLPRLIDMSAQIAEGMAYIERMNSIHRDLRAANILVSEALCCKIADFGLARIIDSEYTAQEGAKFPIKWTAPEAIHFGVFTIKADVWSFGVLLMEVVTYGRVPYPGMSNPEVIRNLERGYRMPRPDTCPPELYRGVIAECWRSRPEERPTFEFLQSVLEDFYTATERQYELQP
T22 sequence (P24723 whole entry): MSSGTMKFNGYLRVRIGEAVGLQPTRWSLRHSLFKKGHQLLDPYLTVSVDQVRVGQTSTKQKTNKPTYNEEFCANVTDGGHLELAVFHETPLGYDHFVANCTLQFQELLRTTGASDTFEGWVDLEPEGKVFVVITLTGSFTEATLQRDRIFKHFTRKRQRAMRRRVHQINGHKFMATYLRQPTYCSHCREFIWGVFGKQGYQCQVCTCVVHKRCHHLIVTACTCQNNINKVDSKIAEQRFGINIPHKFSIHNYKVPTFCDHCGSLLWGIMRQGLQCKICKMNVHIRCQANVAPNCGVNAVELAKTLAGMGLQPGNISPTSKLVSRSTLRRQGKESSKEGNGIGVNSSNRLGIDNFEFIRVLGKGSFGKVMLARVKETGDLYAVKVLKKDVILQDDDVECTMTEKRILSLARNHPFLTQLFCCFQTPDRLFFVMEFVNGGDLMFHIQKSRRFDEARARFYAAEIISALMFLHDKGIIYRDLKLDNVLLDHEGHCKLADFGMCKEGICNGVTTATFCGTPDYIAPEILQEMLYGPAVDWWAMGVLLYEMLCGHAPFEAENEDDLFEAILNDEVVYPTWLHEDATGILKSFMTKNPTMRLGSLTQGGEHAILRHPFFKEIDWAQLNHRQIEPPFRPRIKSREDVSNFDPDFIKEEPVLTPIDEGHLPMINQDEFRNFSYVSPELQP
T18 sequence (O94804 whole entry): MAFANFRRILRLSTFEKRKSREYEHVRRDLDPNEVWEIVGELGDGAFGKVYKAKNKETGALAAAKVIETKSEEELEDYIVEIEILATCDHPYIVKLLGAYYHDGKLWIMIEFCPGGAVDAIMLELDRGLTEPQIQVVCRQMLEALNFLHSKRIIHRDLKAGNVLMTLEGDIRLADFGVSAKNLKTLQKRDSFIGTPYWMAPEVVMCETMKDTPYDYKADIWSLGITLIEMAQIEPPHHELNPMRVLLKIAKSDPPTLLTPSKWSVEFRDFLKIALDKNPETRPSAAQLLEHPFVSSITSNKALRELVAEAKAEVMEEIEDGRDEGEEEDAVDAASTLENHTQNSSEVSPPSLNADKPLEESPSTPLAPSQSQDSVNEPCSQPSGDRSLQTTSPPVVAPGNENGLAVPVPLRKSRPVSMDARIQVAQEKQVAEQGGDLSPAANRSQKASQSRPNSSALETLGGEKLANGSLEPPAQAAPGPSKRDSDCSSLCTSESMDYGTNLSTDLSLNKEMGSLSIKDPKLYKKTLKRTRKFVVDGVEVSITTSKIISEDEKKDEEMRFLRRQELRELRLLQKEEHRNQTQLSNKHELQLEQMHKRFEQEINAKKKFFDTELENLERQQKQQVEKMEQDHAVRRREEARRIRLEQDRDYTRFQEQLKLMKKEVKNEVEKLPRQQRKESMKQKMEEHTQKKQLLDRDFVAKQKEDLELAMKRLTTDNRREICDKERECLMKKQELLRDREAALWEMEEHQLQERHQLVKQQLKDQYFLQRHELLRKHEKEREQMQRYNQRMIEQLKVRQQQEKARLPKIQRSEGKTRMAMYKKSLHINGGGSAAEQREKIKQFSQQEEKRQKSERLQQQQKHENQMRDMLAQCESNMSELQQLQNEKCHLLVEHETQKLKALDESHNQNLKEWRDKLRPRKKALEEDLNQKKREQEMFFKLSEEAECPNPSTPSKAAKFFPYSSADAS
T1 sequence (O75914 whole entry): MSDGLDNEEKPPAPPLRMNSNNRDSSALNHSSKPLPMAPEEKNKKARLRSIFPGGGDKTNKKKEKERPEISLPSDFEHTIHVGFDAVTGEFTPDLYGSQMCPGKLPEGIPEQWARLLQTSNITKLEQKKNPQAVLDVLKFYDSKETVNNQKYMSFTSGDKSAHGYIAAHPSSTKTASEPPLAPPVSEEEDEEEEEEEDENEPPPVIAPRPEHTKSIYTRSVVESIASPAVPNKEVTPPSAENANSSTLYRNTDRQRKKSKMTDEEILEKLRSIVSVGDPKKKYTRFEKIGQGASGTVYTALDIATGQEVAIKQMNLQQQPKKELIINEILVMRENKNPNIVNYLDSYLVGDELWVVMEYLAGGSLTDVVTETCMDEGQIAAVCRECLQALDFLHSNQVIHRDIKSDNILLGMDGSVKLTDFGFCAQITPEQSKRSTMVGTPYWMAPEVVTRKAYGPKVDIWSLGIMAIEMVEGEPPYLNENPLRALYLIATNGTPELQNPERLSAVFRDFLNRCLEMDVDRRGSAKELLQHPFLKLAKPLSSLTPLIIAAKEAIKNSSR

Cc1ccccc1-n1c(C(C)Nc2nc(N)nc3nc[nH]c23)nc2cccc(C)c2c1=O (stereo not drawn) [CAL-130]
100%: all assays above
